In ChEMBL document CHEMBL3763148, “Synthesis, structure elucidation, DNA-PK and PI3K and anti-cancer activity of 8- and 6-aryl-substituted-1-3-benzoxazines” (Eur J Med Chem, 2016):

How the values were obtained:
[1] = target: T1, Phosphatidylinositol 4,5-bisphosphate 3-kinase catalytic subunit alpha isoform (Homo sapiens, UniProt P42336); test: Inhibition of PI3Kalpha (unknown origin) at 10 uM incubated for 60 mins by kinase-glo luminescence assay
[2] = target: T2, Phosphatidylinositol 4,5-bisphosphate 3-kinase catalytic subunit beta isoform (Homo sapiens, UniProt P42338); test: Inhibition of PI3Kbeta (unknown origin) incubated for 60 mins by kinase-glo luminescence assay
Target sequence in this assay (P42338 whole entry, canonical isoform): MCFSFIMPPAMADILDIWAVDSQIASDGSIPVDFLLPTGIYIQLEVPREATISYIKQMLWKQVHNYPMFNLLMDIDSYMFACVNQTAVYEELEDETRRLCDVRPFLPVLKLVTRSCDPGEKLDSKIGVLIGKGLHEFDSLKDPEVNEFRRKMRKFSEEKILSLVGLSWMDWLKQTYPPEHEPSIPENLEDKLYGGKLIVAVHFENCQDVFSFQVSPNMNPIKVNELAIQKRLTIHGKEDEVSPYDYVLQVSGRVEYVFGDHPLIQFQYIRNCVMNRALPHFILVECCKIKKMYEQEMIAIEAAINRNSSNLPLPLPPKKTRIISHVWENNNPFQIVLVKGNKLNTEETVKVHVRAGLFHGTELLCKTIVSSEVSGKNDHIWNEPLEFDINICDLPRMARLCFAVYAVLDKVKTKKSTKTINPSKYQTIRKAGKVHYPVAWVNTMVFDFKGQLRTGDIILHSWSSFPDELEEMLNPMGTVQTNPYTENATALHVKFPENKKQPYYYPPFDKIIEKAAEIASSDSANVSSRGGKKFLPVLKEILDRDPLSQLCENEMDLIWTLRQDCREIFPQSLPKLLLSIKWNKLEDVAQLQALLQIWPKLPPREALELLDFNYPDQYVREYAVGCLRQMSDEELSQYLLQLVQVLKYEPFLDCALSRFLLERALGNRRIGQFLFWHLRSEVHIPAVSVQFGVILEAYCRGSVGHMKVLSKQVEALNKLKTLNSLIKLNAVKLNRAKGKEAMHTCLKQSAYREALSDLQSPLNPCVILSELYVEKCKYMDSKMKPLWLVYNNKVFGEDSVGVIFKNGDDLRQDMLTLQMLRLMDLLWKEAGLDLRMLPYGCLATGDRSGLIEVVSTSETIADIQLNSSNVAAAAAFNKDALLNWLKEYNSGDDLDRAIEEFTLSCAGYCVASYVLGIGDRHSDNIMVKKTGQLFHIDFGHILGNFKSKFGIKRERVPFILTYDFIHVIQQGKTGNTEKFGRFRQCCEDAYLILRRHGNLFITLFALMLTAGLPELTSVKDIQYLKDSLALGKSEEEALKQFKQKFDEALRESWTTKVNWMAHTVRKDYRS

[3] = Cytotoxicity against human NCI-ADR-RES cells assessed as cell growth inhibition at 10 uM after 48 hrs by SRB assay relative to control; assay type: functional; settings: read-out: GI
[4] = organism: Homo sapiens; test: Selectivity ratio of IC50 for PI3Kbeta (unknown origin) to IC50 for human DNA-PK
[5] = target: T1, Phosphatidylinositol 4,5-bisphosphate 3-kinase catalytic subunit alpha isoform; test: Inhibition of PI3Kalpha (unknown origin) incubated for 60 mins by kinase-glo luminescence assay
[6] = target: T2, Phosphatidylinositol 4,5-bisphosphate 3-kinase catalytic subunit beta isoform; test: Inhibition of PI3Kbeta (unknown origin) at 10 uM incubated for 60 mins by kinase-glo luminescence assay
Target sequence in this assay (P42338 whole entry, looked up, canonical isoform): as the sequence (P42338 whole entry, canonical isoform) above

[7] = target: T3, Phosphatidylinositol 4,5-bisphosphate 3-kinase catalytic subunit delta isoform (Homo sapiens) (UniProt O00329); test: Inhibition of PI3Kdelta (unknown origin) at 10 uM incubated for 60 mins by kinase-glo luminescence assay
T3 sequence (whole entry): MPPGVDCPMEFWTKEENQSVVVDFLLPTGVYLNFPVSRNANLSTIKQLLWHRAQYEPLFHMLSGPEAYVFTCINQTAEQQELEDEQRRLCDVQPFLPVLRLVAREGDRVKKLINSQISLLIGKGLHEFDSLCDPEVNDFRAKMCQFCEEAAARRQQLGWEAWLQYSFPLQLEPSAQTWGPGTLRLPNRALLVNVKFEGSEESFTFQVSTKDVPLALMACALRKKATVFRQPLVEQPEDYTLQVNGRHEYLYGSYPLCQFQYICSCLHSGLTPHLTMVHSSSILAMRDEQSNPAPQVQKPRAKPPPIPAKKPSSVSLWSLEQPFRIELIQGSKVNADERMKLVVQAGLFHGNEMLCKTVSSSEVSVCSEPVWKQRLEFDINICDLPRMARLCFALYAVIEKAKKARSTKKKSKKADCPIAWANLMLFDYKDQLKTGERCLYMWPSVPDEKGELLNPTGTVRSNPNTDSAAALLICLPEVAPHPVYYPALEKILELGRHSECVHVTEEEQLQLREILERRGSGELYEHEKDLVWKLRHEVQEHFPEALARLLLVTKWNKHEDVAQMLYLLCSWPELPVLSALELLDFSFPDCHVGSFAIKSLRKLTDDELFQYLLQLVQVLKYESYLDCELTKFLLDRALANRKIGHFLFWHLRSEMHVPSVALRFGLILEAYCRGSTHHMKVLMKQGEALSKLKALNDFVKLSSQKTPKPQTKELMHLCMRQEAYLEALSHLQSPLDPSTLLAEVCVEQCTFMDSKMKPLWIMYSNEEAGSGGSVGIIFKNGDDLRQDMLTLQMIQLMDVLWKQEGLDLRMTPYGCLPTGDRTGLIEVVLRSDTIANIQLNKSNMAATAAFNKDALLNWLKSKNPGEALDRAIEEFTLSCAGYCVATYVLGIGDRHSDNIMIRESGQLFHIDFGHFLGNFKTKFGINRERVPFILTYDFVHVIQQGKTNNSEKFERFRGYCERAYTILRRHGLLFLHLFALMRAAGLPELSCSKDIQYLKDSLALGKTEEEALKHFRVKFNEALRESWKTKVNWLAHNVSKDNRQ

[8] = target: DNA-dependent protein kinase catalytic subunit (Homo sapiens, UniProt P78527); test: Inhibition of human DNA-PK using EPPLSQEAFADLWKK as substrate at 10 uM by HTRF assay

T1 sequence (P42336 whole entry, canonical isoform): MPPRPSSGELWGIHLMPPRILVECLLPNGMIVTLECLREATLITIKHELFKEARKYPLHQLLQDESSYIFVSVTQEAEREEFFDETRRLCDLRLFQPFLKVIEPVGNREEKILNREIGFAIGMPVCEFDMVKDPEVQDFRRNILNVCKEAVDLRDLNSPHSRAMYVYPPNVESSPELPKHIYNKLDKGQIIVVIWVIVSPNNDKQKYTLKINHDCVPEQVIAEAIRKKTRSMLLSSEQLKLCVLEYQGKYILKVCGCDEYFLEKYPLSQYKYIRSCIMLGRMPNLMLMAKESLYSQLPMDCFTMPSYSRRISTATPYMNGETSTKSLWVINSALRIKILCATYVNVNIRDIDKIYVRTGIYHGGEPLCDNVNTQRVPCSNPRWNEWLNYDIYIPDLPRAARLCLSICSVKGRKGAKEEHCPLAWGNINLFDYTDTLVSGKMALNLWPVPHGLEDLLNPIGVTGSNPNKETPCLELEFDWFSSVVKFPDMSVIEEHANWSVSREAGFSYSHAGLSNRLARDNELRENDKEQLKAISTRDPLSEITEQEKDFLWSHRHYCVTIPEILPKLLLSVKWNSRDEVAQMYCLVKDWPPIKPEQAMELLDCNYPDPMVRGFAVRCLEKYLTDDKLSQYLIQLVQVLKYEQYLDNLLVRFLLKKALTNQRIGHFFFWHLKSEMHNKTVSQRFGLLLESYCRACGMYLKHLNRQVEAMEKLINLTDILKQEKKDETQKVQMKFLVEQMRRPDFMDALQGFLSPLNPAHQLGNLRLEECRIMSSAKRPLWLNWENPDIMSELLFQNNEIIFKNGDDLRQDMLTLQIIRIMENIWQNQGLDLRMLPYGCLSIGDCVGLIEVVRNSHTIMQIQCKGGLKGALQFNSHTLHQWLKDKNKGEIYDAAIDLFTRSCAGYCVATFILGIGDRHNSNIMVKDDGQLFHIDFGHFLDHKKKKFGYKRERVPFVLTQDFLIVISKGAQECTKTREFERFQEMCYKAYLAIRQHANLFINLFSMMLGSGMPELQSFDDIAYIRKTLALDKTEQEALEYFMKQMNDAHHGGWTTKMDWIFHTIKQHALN

Row | Structure (SMILES) | inhibition [1] | IC50 [2] | inhibition of growth at 10 µM [3] | Ratio IC50 [4] | IC50 [5] | inhibition [6] | inhibition [7] | inhibition [8]
1 | O=c1nc(N2CCOCC2)oc2c(-c3cccc4ccccc34)cccc12 | 34% | 5 µM | 16.3% | 8 |  |  |  | 
2 | NC(=O)c1ccc(-c2cccc3c(=O)nc(N4CCOCC4)oc23)cc1 |  |  | 2.66% |  | > 10 µM | 13% |  | 
3 | COc1ccc(-c2cccc3c(=O)nc(N4CCOCC4)oc23)cc1 |  |  | 9.12% |  | 2.8 µM | 22% |  | 
4 | O=c1nc(N2CCOCC2)oc2ccc(-c3cccc4c3sc3ccccc34)cc12 | 0% |  | 2.44% |  |  | 21% | 0% | 8%
5 | O=c1nc(N2CCOCC2)oc2c(-c3cccc4c3sc3ccccc34)cccc12 | 25% | 5.8 µM | 19.2% | 170 |  |  |  | 
6 | O=c1nc(N2CCOCC2)oc2c(-c3cccc4c3oc3ccccc34)cccc12 | 26% | 6.9 µM | 12.8% |  |  |  |  | 
7 | O=c1nc(N2CCOCC2)oc2c(-c3ccsc3)cccc12 |  | 3.4 µM | 13.3% |  | 3 µM |  |  | 
8 | O=c1nc(N2CCOCC2)oc2c(-c3cccs3)cccc12 |  |  | 11% |  | 3.3 µM | 43% |  | 
